Laboratory results as given in US3940441A (priority 1974, dated 1976).
≈ marks a conversion by molar mass, not a printed value. Like-named read-outs stand apart in the source and are kept apart here.

How the values were obtained:
Endamoeba criceti = assay: chemotherapeutic evaluation in vivo in hamsters infected with Endamoeba criceti (amebacidal activity); set-up: species or system hamster; conditions: oral
Staphylococcus aureus = assay: microbe, parasite or virus in culture; format: cell-based; conditions: for MBC / MIC: Staphylococcus aureus; for MBC: read-out: Minimum Effective Concentration, Bactericidal
Eberthella typhi = assay: microbe, parasite or virus in culture; format: cell-based; conditions: for MBC: read-out: Minimum Effective Concentration, Bactericidal; for MIC: read-out: Minimum Effective Concentration, Bacteriostatic
Clostridium welchii = assay: microbe, parasite or virus in culture; format: cell-based
Pseudomonas aeruginosa = assay: microbe, parasite or virus in culture; format: cell-based; conditions: for MBC / MIC: Pseudomonas aeruginosa; for MBC: read-out: Minimum Effective Concentration, Bactericidal
Streptococcus sp. = assay: microbe, parasite or virus in culture; format: cell-based; conditions: for MBC / MIC: Streptococcus; for MBC: read-out: Minimum Effective Concentration, Bactericidal; for MIC: read-out: Minimum Effective Concentration, Bacteriostatic
Escherichia coli = assay: microbe, parasite or virus in culture; format: cell-based; conditions: read-out: Minimum Inhibitory Concentration
Proteus vulgaris = assay: microbe, parasite or virus in culture; format: cell-based; conditions: read-out: Minimum Inhibitory Concentration
[1] = read-out: Minimum Effective Concentration, Bacteriostatic
[2] = Clostridium, read-out: Minimum Effective Concentration, Bactericidal
[3] = Clostridium, read-out: Minimum Effective Concentration, Bacteriostatic
[4] = read-out: Minimum Inhibitory Concentration

| Compound | MBC (Staphylococcus aureus) | MIC (Staphylococcus aureus; [1]) | MBC (Eberthella typhi) | MIC (Eberthella typhi) | MBC (Clostridium welchii; [2]) | MIC (Clostridium welchii; [3]) | MBC (Pseudomonas aeruginosa) | MIC (Pseudomonas aeruginosa; [1]) | also measured |
| --- | --- | --- | --- | --- | --- | --- | --- | --- | --- |
| O=[N+]([O-])c1ccc(Oc2ccc(C=NCCCCCCN=Cc3ccc(Oc4ccc([N+](=O)[O-])cc4)cc3)cc2)cc1 [Example 1A, N,N'-bis[4-(4'-nitrophenoxy)benzal]-1,6-hexanediamine] |  |  |  |  |  |  |  |  | animals cleared of amebic infection (Endamoeba criceti; 25 mg./kg./day): 4 out of 10; animals cleared of amebic infection (Endamoeba criceti; 50 mg./kg./day): 6 out of 10; animals cleared of amebic infection (Endamoeba criceti; 100 mg./kg./day): 3 out of 5 |
| O=[N+]([O-])c1ccc(Oc2ccc(C=NCCN=Cc3ccc(Oc4ccc([N+](=O)[O-])cc4)cc3)cc2)cc1 [Example 3, N,N'-bis[4-(4'-nitrophenoxy)benzal]-1,2-ethanediamine] |  |  |  |  |  |  |  |  | animals cleared of amebic infection (Endamoeba criceti; 100 mg./kg./day): 2 out of 5 |
| O=[N+]([O-])c1ccc(Oc2ccc(CNCCCCCCNCc3ccc(Oc4ccc([N+](=O)[O-])cc4)cc3)cc2)cc1 [Example 7, N,N'-bis[4-(4'-nitrophenoxy)benzyl]-1,6-hexanediamine] | 7.5 mg/L (≈ 13.1 µM) | 1 mg/L (≈ 1.75 µM) | 50 mg/L (≈ 87.6 µM) | 7.5 mg/L (≈ 13.1 µM) | 25 mg/L (≈ 43.8 µM) | 25 mg/L (≈ 43.8 µM) | 500 mg/L (≈ 876 µM) | 250 mg/L (≈ 438 µM) |  |
| O=C(C(Cl)Cl)N(CCN(Cc1ccc(Oc2ccc([N+](=O)[O-])cc2)cc1)C(=O)C(Cl)Cl)Cc1ccc(Oc2ccc([N+](=O)[O-])cc2)cc1 [Example 13A, N,N'-bis(dichloroacetyl)-N,N'-bis[4-(4'-nitrophenoxy)benzyl]-1,2-ethanediamine] | > 1000 mg/L | 750 mg/L (≈ 1020 µM) | 750 mg/L (≈ 1020 µM) | 750 mg/L (≈ 1020 µM) | > 1000 mg/L | 750 mg/L (≈ 1020 µM) | 750 mg/L (≈ 1020 µM) | 750 mg/L (≈ 1020 µM) |  |
| O=[N+]([O-])c1ccc(Oc2ccc(C=NCCCCCCCCN=Cc3ccc(Oc4ccc([N+](=O)[O-])cc4)cc3)cc2)cc1 [Example 2, N,N'-bis[4-(4'-nitrophenoxy)benzal]-1,8-octanediamine] |  |  |  |  |  |  |  |  | animals cleared of amebic infection (Endamoeba criceti; 12.5 mg./kg./day): 1 out of 5; animals cleared of amebic infection (Endamoeba criceti; 25 mg./kg./day): 2 out of 5; animals cleared of amebic infection (Endamoeba criceti; 50 mg./kg./day): 2 out of 5 |
| Nc1ccc(Oc2ccc(CNCCCCCCCCNCc3ccc(Oc4ccc(N)cc4)cc3)cc2)cc1 [Example 14A, N,N'-bis[4-(4'-aminophenoxy)benzyl]-1,8-octanediamine] | 25 mg/L (≈ 46.4 µM) | 7.5 mg/L (≈ 13.9 µM) | 75 mg/L (≈ 139 µM) | 50 mg/L (≈ 92.8 µM) |  |  | 1000 mg/L (≈ 1860 µM) | 750 mg/L (≈ 1390 µM) | MBC (Clostridium welchii; Clostridium; read-out: Minimum Effective Concentration, Bactericidal): 100 mg/L (≈ 186 µM); MIC (Clostridium welchii; Clostridium; read-out: Minimum Effective Concentration, Bacteriostatic): 100 mg/L (≈ 186 µM); MBC (Streptococcus sp.): 50 mg/L (≈ 92.8 µM); MIC (Streptococcus sp.): 25 mg/L (≈ 46.4 µM) |
| 2,2'-Dimethylbis{2-[4-(4'-nitrophenoxy)benzylamino]-ethyl}amine and 1,2'-Dimethylbis{2-[4-(4'-nitrophenoxy)benzylamino]ethyl}amine (Mixture of Isomers) [Example 9A] |  |  |  |  |  |  |  |  | Minimum Effective Concentration, Bactericidal (Staphylococcus aureus): 0.025 mg./cc.; Minimum Effective Concentration, Bacteriostatic (Staphylococcus aureus): 0.005 mg./cc.; Minimum Effective Concentration, Bactericidal (Eberthella typhi): 0.25 mg./cc.; Minimum Effective Concentration, Bacteriostatic (Eberthella typhi): 0.1 mg./cc.; Minimum Effective Concentration, Bactericidal (Clostridium welchii): 0.005 mg./cc.; Minimum Effective Concentration, Bacteriostatic (Clostridium welchii): 0.001 mg./cc.; Minimum Effective Concentration, Bactericidal (Pseudomonas aeruginosa): > 1.0 mg./cc.; Minimum Effective Concentration, Bacteriostatic (Pseudomonas aeruginosa): 0.5 mg./cc.; Minimum Effective Concentration, Bactericidal (Streptococcus sp.): 0.01 mg./cc.; Minimum Effective Concentration, Bacteriostatic (Streptococcus sp.): 0.0075 mg./cc. |
| O=[N+]([O-])c1ccc(Oc2ccc(CNCCCNCCCNCc3ccc(Oc4ccc([N+](=O)[O-])cc4)cc3)cc2)cc1 [Example 9B, Bis{3-[4-(4'-nitrophenoxy)benzylamino]propyl}amine] |  |  |  |  |  |  |  |  | MIC (Staphylococcus aureus; [4]): 0.05 mg/L (≈ 0.0854 µM); MIC (Pseudomonas aeruginosa; [4]): 3.1 mg/L (≈ 5.29 µM); MIC (Escherichia coli): 0.2 mg/L (≈ 0.341 µM); MIC (Proteus vulgaris): 125 mg/L (≈ 213 µM) |
| O=[N+]([O-])c1ccc(Oc2ccc(CNCCCCCCCCNCc3ccc(Oc4ccc([N+](=O)[O-])cc4)cc3)cc2)cc1 [Example 6A, N,N'-bis[4-(4'-nitrophenoxy)benzyl]-1,8-octanediamine] | 5 mg/L (≈ 8.35 µM) | 0.5 mg/L (≈ 0.835 µM) | 25 mg/L (≈ 41.8 µM) | 7.5 mg/L (≈ 12.5 µM) | 75 mg/L (≈ 125 µM) | 50 mg/L (≈ 83.5 µM) | 1000 mg/L (≈ 1670 µM) | 750 mg/L (≈ 1250 µM) |  |
| Cc1c(C)c(CCNCc2ccc(Oc3ccc([N+](=O)[O-])cc3)cc2)c(C)c(C)c1CCNCc1ccc(Oc2ccc([N+](=O)[O-])cc2)cc1 [Example 16A, Bis{2-[4-(4'-nitrophenoxy)benzylamino]ethyl}-2,3,5,6-tetramethylbenzene] | 75 mg/L (≈ 111 µM) | 7.5 mg/L (≈ 11.1 µM) | 750 mg/L (≈ 1110 µM) | 100 mg/L (≈ 148 µM) | 250 mg/L (≈ 370 µM) | 100 mg/L (≈ 148 µM) |  |  | MBC (Streptococcus sp.): 25 mg/L (≈ 37 µM); MIC (Streptococcus sp.): 2.5 mg/L (≈ 3.7 µM) |
| O=[N+]([O-])c1ccc(Oc2ccc(CNC[C@H]3CC[C@H](CNCc4ccc(Oc5ccc([N+](=O)[O-])cc5)cc4)CC3)cc2)cc1 [Example 10A, Trans-1,4-bis[4-(4'-nitrophenoxy)benzylaminomethyl]cyclohexane] | 50 mg/L (≈ 83.8 µM) | 10 mg/L (≈ 16.8 µM) | 75 mg/L (≈ 126 µM) | 50 mg/L (≈ 83.8 µM) | 100 mg/L (≈ 168 µM) | 100 mg/L (≈ 168 µM) |  |  | MBC (Streptococcus sp.): 25 mg/L (≈ 41.9 µM); MIC (Streptococcus sp.): 25 mg/L (≈ 41.9 µM) |
| CN(CCCCCCN(C)Cc1ccc(Oc2ccc([N+](=O)[O-])cc2)cc1)Cc1ccc(Oc2ccc([N+](=O)[O-])cc2)cc1 [Example 11A, N,N'-Dimethyl-N,N'-bis[4-(4'-nitrophenoxy)-benzyl]-1,6-hexanediamine] | 250 mg/L (≈ 418 µM) | 5 mg/L (≈ 8.35 µM) | 750 mg/L (≈ 1250 µM) | 500 mg/L (≈ 835 µM) | 500 mg/L (≈ 835 µM) | 250 mg/L (≈ 418 µM) |  |  | MBC (Streptococcus sp.): 5 mg/L (≈ 8.35 µM); MIC (Streptococcus sp.): 5 mg/L (≈ 8.35 µM) |
| O=C(Nc1ccccc1)N(CCCCCCN(Cc1ccc(Oc2ccc([N+](=O)[O-])cc2)cc1)C(=O)Nc1ccccc1)Cc1ccc(Oc2ccc([N+](=O)[O-])cc2)cc1 [Example 12A, N,N'-bis[4-(4'-nitrophenoxy)benzyl]-N,N'-bis(phenylcarbamyl)-1,6-hexanediamine] | 75 mg/L (≈ 92.7 µM) | 75 mg/L (≈ 92.7 µM) | > 100 mg/L | 75 mg/L (≈ 92.7 µM) | 100 mg/L (≈ 124 µM) | 75 mg/L (≈ 92.7 µM) | > 100 mg/L | 75 mg/L (≈ 92.7 µM) |  |
| O=[N+]([O-])c1ccc(Oc2ccc(CNCCNCc3ccc(Oc4ccc([N+](=O)[O-])cc4)cc3)cc2)cc1 [Example 8, N,N'-bis[4-(4'-nitrophenoxy)benzyl]-1,2-ethanediamine] | 50 mg/L (≈ 97.2 µM) | 10 mg/L (≈ 19.4 µM) | > 100 mg/L | 75 mg/L (≈ 146 µM) | 1 mg/L (≈ 1.94 µM) | 0.5 mg/L (≈ 0.972 µM) | > 100 mg/L | 75 mg/L (≈ 146 µM) |  |
